Assay results taken from the supplement of paper PMC10331698.
± gives the standard deviation of the averaged measurements.

Columns and labels:
Assay in all cases: level (log10 ratio to DMSO vehicle control); higher = higher biomarker level / cell amount than vehicle control
[1] = compound: O=C(O)C(F)(OC(F)(F)C(F)(F)C(F)(F)F)C(F)(F)F [Ammonium perfluoro-2-methyl-3-oxahexanoate] (in Water)
Protocol: (§1)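 BioMAP Diversity Plus panel of 12 human primary cell co-culture systems (3C, 4H, LPS, SAg, BT, BF4T, BE3C, CASM3C, HDF3CGF, KF3CT, MyoF, Mphg). Compounds were added 1 h before stimulation and left for 24 h (MyoF 48 h; BT 72 h for soluble read-outs or 6 d for IgG). Biomarkers were read by ELISA, cytotoxicity by SRB, PBMC viability and proliferation by Alamar Blue. Each well value was divided by the mean of 8 DMSO control wells on the same plate and log10 transformed; duplicate blinded samples were tested at 4 concentrations.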

[2] = compound: NS(=O)(=O)C(F)(F)C(F)(F)C(F)(F)C(F)(F)C(F)(F)C(F)(F)C(F)(F)C(F)(F)F [Perfluorooctanesulfonamide] (in DMSO)
Protocol: as §1

[3] = compound: C[C@@H]1C[C@H]2[C@@H]3CCC4=CC(=O)C=C[C@]4(C)[C@@]3(F)[C@@H](O)C[C@]2(C)[C@@]1(O)C(=O)COP(=O)(O)O [Dexamethasone sodium phosphate] (in DMSO)
Protocol: as §1

[4] = compound: O=C(O)C=C(C(F)(F)F)C(F)(F)F [3,3-Bis(trifluoromethyl)-2-propenoic acid] (in DMSO)
Protocol: as §1

[5] = compound: OCC(F)(F)C(F)(F)C(F)(F)C(F)F [1H,1H,5H-Perfluoropentanol] (in DMSO)
Protocol: as §1

[6] = compound: O=C(O)C(F)(F)C(F)(F)C(F)(F)OC(F)(F)F [Perfluoro(4-methoxybutanoic) acid] (in DMSO)
Protocol: as §1

Test System | level (log10) ([1]; 6700 nM) | level (log10) ([1]; 20000 nM) | level (log10) ([1]; 60000 nM) | level (log10) ([2]; 6700 nM) | level (log10) ([2]; 20000 nM) | level (log10) ([3]; 1500 nM) | level (log10) ([3]; 4400 nM) | level (log10) ([3]; 13000 nM) | level (log10) ([3]; 40000 nM) | level (log10) ([4]; 6700 nM) | level (log10) ([4]; 20000 nM) | level (log10) ([4]; 60000 nM) | level (log10) ([5]; 6700 nM) | level (log10) ([5]; 20000 nM) | level (log10) ([5]; 60000 nM) | level (log10) ([6]; 6700 nM) | level (log10) ([6]; 20000 nM) | level (log10) ([6]; 60000 nM)
KF3CT:CXCL9/MIG | -0.007 ± 0.011 | 0.0025 ± 0.00071 | 0.0005 ± 0.0021 | 0.0075 ± 0.0035 | -0.032 ± 0.034 | -0.008 ± 0.024 | 0.002 ± 0.0014 | -0.0075 ± 0.0021 | -0.01 ± 0.0014 | 0.0015 ± 0.005 | -0.003 ± 0.0085 | 0.006 ± 0.011 | -0.009 ± 0.0085 | -0.006 ± 0.017 | 0.008 ± 0.023 | 0.0195 ± 0.0021 | 0.0075 ± 0.0092 | 0.016 ± 0.018
KF3CT:CXCL10/IP-10 | -0.017 ± 0.0085 | 0.004 ± 0.0057 | 0.005 ± 0.0042 | -0.021 ± 0.0028 | -0.205 ± 0.0092 | 0.0015 ± 0.0021 | 0.01 ± 0.0071 | 0.005 | 0.0055 ± 0.0064 | -0.01 ± 0.013 | -0.027 ± 0.0014 | -0.0225 ± 0.019 | -0.0125 ± 0.033 | 0.0025 ± 0.00071 | 0.0365 ± 0.00071 | 0.002 ± 0.011 | -0.0025 ± 0.0035 | 0.006 ± 0.0099
KF3CT:IL-1alpha | -0.001 ± 0.0071 | 0.011 ± 0.0014 | -0.0355 ± 0.044 | 0.074 ± 0.0042 | -0.056 ± 0.02 | -0.036 ± 0.018 | -0.035 ± 0.0057 | -0.0305 ± 0.00071 | -0.051 ± 0.044 | -0.001 ± 0.0057 | -0.016 ± 0.016 | -0.0185 ± 0.032 | -0.0465 ± 0.05 | -0.0475 ± 0.056 | 0.0535 ± 0.025 | -0.003 ± 0.0099 | -0.015 ± 0.027 | 0 ± 0.021
KF3CT:MMP-9 | -0.008 ± 0.011 | 0.0415 ± 0.026 | 0.0695 ± 0.0035 | 0.0365 ± 0.026 | -0.274 ± 0.023 | -0.0065 ± 0.00071 | -0.002 | -0.023 ± 0.014 | -0.0175 ± 0.013 | -0.029 ± 0.025 | -0.031 ± 0.041 | -0.078 ± 0.028 | -0.024 ± 0.045 | -0.008 ± 0.0071 | 0.0125 ± 0.04 | 0.001 ± 0.0057 | 0.0055 ± 0.0092 | 0.0205 ± 0.013
KF3CT:PAI-I | -0.0455 ± 0.012 | -0.0695 ± 0.0078 | -0.054 ± 0.02 | 0.03 ± 0.027 | -0.108 ± 0.054 | 0.0055 ± 0.0021 | 0.0235 ± 0.0092 | 0.002 ± 0.025 | 0.006 | 0.004 ± 0.013 | 0.002 ± 0.013 | -0.0055 ± 0.018 | 0.0105 ± 0.098 | 0.062 ± 0.035 | -0.0045 ± 0.011 | -0.0015 ± 0.005 | -0.0115 ± 0.011 | -0.004 ± 0.018
KF3CT:SRB | -0.004 | -0.005 ± 0.0014 | -0.0015 ± 0.005 | -0.0035 ± 0.015 | -0.0455 ± 0.029 | -0.0025 ± 0.00071 | -0.0035 ± 0.0035 | -0.0005 ± 0.005 | 0.0055 ± 0.012 | -0.0015 ± 0.0021 | 0.003 | 0.024 ± 0.0071 | 0.003 ± 0.0028 | 0.0025 ± 0.0035 | 0.0025 ± 0.0035 | -0.004 ± 0.0014 | 0.0015 ± 0.0021 | -0.0015 ± 0.0064
KF3CT:TIMP-2 | -0.0005 ± 0.037 | -0.002 ± 0.025 | 0.022 ± 0.027 | -0.0275 ± 0.012 | -0.06 ± 0.021 | -0.0095 ± 0.025 | -0.0005 ± 0.021 | -0.0025 ± 0.005 | 0.0155 ± 0.069 | 0.006 ± 0.048 | -0.016 ± 0.021 | 0.039 ± 0.052 | -0.018 ± 0.013 | 0.025 ± 0.045 | 0.0285 ± 0.029 | -0.0015 ± 0.005 | 0.007 ± 0.0042 | 0.008 ± 0.0071
KF3CT:uPA | -0.0275 ± 0.043 | -0.009 ± 0.0099 | -0.0175 ± 0.019 | 0.0165 ± 0.0064 | -0.093 ± 0.0014 | 0 ± 0.011 | 0.012 ± 0.0085 | -0.0085 ± 0.00071 | -0.006 ± 0.017 | 0.027 ± 0.02 | 0.0275 ± 0.028 | 0.0325 ± 0.0021 | 0.0035 ± 0.0092 | -0.0315 ± 0.03 | 0.0375 ± 0.005 | -0.0065 ± 0.005 | -0.0175 ± 0.019 | -0.0055 ± 0.011
MyoF:CD106/VCAM-1 | 0.0105 ± 0.033 | 0.012 ± 0.011 | -0.011 ± 0.0099 | -0.005 ± 0.023 | -0.293 ± 0.088 | -0.0825 ± 0.03 | -0.046 ± 0.0057 | -0.058 ± 0.013 | -0.0655 ± 0.016 | -0.0825 ± 0.00071 | -0.145 ± 0.0021 | -0.291 ± 0.04 | -0.02 ± 0.0099 | -0.0005 ± 0.035 | 0.0165 ± 0.015 | -0.0175 ± 0.0021 | -0.0205 ± 0.0092 | -0.018 ± 0.016
MyoF:CXCL8/IL-8 | -0.0355 ± 0.032 | -0.0385 ± 0.011 | -0.045 ± 0.011 | -0.04 ± 0.031 | -0.013 ± 0.0085 | -0.0725 ± 0.011 | -0.074 ± 0.013 | -0.1 ± 0.011 | -0.104 ± 0.0057 | 0.0915 ± 0.00071 | 0.107 ± 0.015 | 0.154 ± 0.016 | -0.018 ± 0.076 | 0.0485 ± 0.064 | 0.07 ± 0.13 | -0.0145 ± 0.018 | -0.004 ± 0.0042 | 0.01 ± 0.0028
MyoF:Collagen I | -0.0135 ± 0.061 | -0.024 ± 0.024 | -0.027 ± 0.031 | -0.018 ± 0.014 | -0.236 ± 0.0028 | 0.032 ± 0.021 | 0.032 ± 0.0057 | 0.006 ± 0.0071 | 0.027 ± 0.0042 | -0.031 ± 0.0057 | -0.046 ± 0.021 | -0.055 ± 0.04 | -0.003 ± 0.0057 | 0.021 ± 0.041 | 0.0305 ± 0.052 | -0.0165 ± 0.0078 | -0.013 ± 0.0028 | -0.011 ± 0.0071
MyoF:Collagen III | 0.0135 ± 0.0035 | 0.006 ± 0.023 | -0.035 ± 0.034 | -0.014 ± 0.0099 | -0.242 ± 0.023 | 0.0055 ± 0.021 | 0.0255 ± 0.035 | 0.0185 ± 0.021 | 0.028 ± 0.018 | -0.021 ± 0.0014 | -0.0335 ± 0.00071 | -0.064 ± 0.011 | -0.0005 ± 0.0092 | 0.0295 ± 0.015 | 0.037 ± 0.045 | -0.006 ± 0.0071 | 0.0015 ± 0.015 | 0.008 ± 0.0057
MyoF:Collagen IV | -0.013 ± 0.0057 | 0.0045 ± 0.011 | 0.0105 ± 0.012 | 0.118 ± 0.015 | 0.28 ± 0.028 | -0.007 ± 0.021 | 0.011 ± 0.041 | 0.0005 ± 0.037 | 0.0195 ± 0.011 | -0.0215 ± 0.029 | -0.055 ± 0.025 | -0.0345 ± 0.028 | -0.001 ± 0.0014 | -0.0005 ± 0.0064 | 0.0095 ± 0.00071 | -0.0165 ± 0.0021 | -0.0125 ± 0.0035 | 0.016 ± 0.027
MyoF:Decorin | -0.048 ± 0.023 | -0.02 ± 0.0085 | -0.024 ± 0.013 | 0.0265 ± 0.053 | 0.031 ± 0.037 | 0.016 ± 0.011 | 0.0385 ± 0.012 | 0.034 ± 0.033 | 0.039 ± 0.042 | -0.0275 ± 0.0021 | -0.043 ± 0.024 | -0.057 ± 0.045 | 0 ± 0.089 | 0.029 ± 0.12 | 0.0455 ± 0.15 | -0.024 ± 0.041 | 0.0175 ± 0.079 | -0.0075 ± 0.063
MyoF:MMP-1 | -0.0025 ± 0.0064 | 0.0185 ± 0.0092 | -0.0095 ± 0.0064 | -0.038 ± 0.013 | 0.0955 ± 0.04 | 0.004 ± 0.031 | 0.005 ± 0.0014 | -0.0315 ± 0.013 | -0.0125 ± 0.005 | -0.0075 ± 0.0092 | -0.0445 ± 0.0078 | -0.0085 ± 0.093 | -0.054 ± 0.028 | -0.01 ± 0.052 | 0.093 ± 0.13 | -0.0165 ± 0.0078 | -0.0245 ± 0.026 | 0.0205 ± 0.06
MyoF:PAI-I | -0.0005 ± 0.005 | -0.0025 ± 0.0064 | -0.019 ± 0.011 | 0.0135 ± 0.019 | 0.006 ± 0.0071 | 0.0185 ± 0.0078 | 0.0085 ± 0.015 | 0.005 ± 0.0028 | 0.0085 ± 0.012 | -0.005 ± 0.0042 | 0.0045 ± 0.0064 | 0.005 ± 0.02 | -0.0265 ± 0.0078 | -0.018 ± 0.031 | -0.0045 ± 0.0021 | -0.003 ± 0.0042 | -0.0045 ± 0.0064 | 0.0005 ± 0.00071
